# In paper PMC9863266, “Preclinical Studies and Drug Combination of Low-Cost Molecules for Chagas Disease” (Pharmaceuticals, 2022):
# Where “and” joins values, the source holds several entries; their conditions need not be identical. Equal values may be shown once.
# Assays:
# [1] = tested on: CL Brener clone of T. cruzi; experiment: Acute murine model of Chagas disease; assay type: in vivo, Balb/c mice
# Protocol: Three-month-old Balb/c mice were infected (day 0) with infected blood from mice at the beginning of the peak of parasitemia (parasitemia greater than 1.0 × 10^6 p /mL with the CL Brener clone of T. cruzi) by intraperitoneal injection (10,000 parasites per mouse). Parasitemia was followed from the fourth-day post-infection until all the mice in the group were positive. Parasitemia measurements were performed by optical microscopy. Once all the mice were positive, the treatment was started. The treatment lasted 15 consecutive days; the compounds were administered orally by intragastric cannula once a day. Parasitemia was monitored weekly. At 30 and 60 days, 200 μL of blood was extracted from the mouse tail for serological tests (ELISA test) to detect antigens of T. cruzi. Day 60 was the end of the experiment, and the animals were sacrificed.
# Hemoconcentration and counting micromethod: the mice were bled by pricking the tail and taking the blood with capillaries. One capillary per mouse draws 8-18 mm in height of blood. The millimeters were converted to μL by a table previously described and calibrated in the laboratory. The capillaries were centrifuged at 3000× g for 40 s. The parasitic load in the capillary was observed by optical microscopy (OM) in the capillary: the red blood cells (GR) were distributed at one end and the supernatant serum at the other end, at the interface is the trypomastigotes. Then, the capillary was cut a few mm on the interface towards the GR part and its content was spread on a slide, covered with a coverslip. Then, the total number of parasites in 50 fields (OM at 40× magnification) was counted. This sum was then multiplied by 1/50 to obtain the average number of trypomastigotes per field, corresponding to the number of trypanosomes per 5 mm^3. This was then compared to the samples from control animals. The mean and standard deviation were calculated by using OriginPro9 and GraphPad Prism 5. Comparisons of parasite suppression were completed by the analysis of variance (two-way ANOVA as a […] statistical test).
# zebrafish embryos = tested on: zebrafish embryos; set-up: method as in earlier work; conditions: cited from earlier work
# CD1 and Balb/c mice = tested on: CD1 and Balb/c mice; set-up: method as in earlier work; conditions: cited from earlier work
# cruzipain = conditions: cited from earlier work
# T. cruzi amastigotes = tested on: T. cruzi amastigotes; set-up: method as in earlier work; conditions: read-out: In vitro anti-T. cruzi activity (multiple strains) (IC50); cited from earlier work
# [2] = tested on: Leishmania spp (cutaneous) promastigotes; set-up: method as in earlier work; conditions: read-out: In vitro anti-Leishmania spp (cutaneous) activity (IC50); cited from earlier work
# Leishmania infantum = tested on: Leishmania infantum; set-up: method as in earlier work; conditions: amastigotes; read-out: In vitro anti-Leishmania infantum (visceral) activity (IC50); cited from earlier work
# [3] = tested on: Salmonella typhimurium strains TA98, T100, T102, TA1535, and TA1537; conditions: cited from earlier work
# CD-1 mice [4] = conditions: mouse, in vivo; cited from earlier work
# [5] = tested on: epimastigote form of T. cruzi, Tulahuen 2 strain; experiment: Mechanism of death by flow cytometry, AV/IP labeling; assay type: cell-based; conditions: 24 h; 20 × IC50
# Protocol: Parasites were immediately analyzed on an Accuri C6 flow cytometer (BD Bioscience, Franklin Lakes, New Jersey, U.S.). […] Ten thousand events were analyzed for each of the two independent experiments. Data were analyzed using BD CSampler software (BD Bioscience). Untreated parasites were used as a control. For the positive control of apoptosis and necrosis, the parasites were treated with hydrogen peroxide (H2O2) 50 µM and 100 µM for 2.5 h, respectively. These single-spot controls were used to calculate color compensation for flow cytometry.
# CD-1 mice [6] = experiment: Micronucleus test in mice (genotoxicity); conditions: positive control, 50 mg/kg intraperitoneal, single dose 24 h before sacrifice
# Protocol: The protocol was approved by the Paraguayan ethics committee for animal experimentation (No. IORG0010088). […] The treatment of each group was repeated five times, totaling 5 animals per concentration. The route used in the administration of the negative control and the compound (groups I and II) was oral, using an esophageal cannula and in group III the route was intraperitoneal. The intervention was carried out in two doses: 24 and 48 h before sacrifice, except for cyclophosphamide, which was administered in a single dose, 24 h before sacrifice. At the end of the experiment, the femurs were harvested, and the red bone marrow was removed with fetal bovine serum, kept at 37 °C. […] Samples were stained with 4 % Giemsa stain for 3 min and analyzed under an immersion light microscope. For each treated animal, 1000 polychromatic erythrocytes (EPCs) were counted, including those that presented micronucleus (EPCMNs). The ratio of polychromatic erythrocytes (EPC) vs. normochromatic erythrocytes (ENC), upon counting 100 cells, was also evaluated. The proportion of EPCMNs was calculated for each group, and the treated groups with the compound and cyclophosphamide were compared with the negative control group. The statistical analysis was carried out from the individual values of the evaluated parameters, calculating the mean values and their standard deviations for each of the experimental groups. […]
smiles,measurement,setting,value
"O=C(Cn1ccnc1[N+](=O)[O-])NCc1ccccc1 [Bnz, Benznidazole]",Days Post-Infection of the First Parasitemia Peak,[1]; 10 µmoles/kg/day,15 days
same,Reduction in the Parasitemia Peak (%),[1]; 10 µmoles/kg/day,80%
same,Survival (%),[1]; 10 µmoles/kg/day,100%
same,Days Post-Infection of the First Parasitemia Peak,[1]; 38 µmoles/kg/day,15 days
same,Reduction in the Parasitemia Peak (%),[1]; 38 µmoles/kg/day,90%
same,Survival (%),[1]; 38 µmoles/kg/day,100%
same,Days Post-Infection of the First Parasitemia Peak,[1]; 48 µmoles/kg/day,43 days
same,Reduction in the Parasitemia Peak (%),[1]; 48 µmoles/kg/day,95%
same,Survival (%),[1]; 48 µmoles/kg/day,100%
"CC(=NNC(N)=S)[C@H]1CC[C@H]2[C@@H]3CC=C4C[C@@H](O)CC[C@]4(C)[C@H]3CC[C@]12C [Compound 1260, 1-(3β-Hydroxy-pregn-5-ene-20E-ylydene)thiosemicarbazide]",Teratogenicity in zebrafish (LD50),zebrafish embryos,> 15 µM
same,"Acute oral toxicity in mice (Up and Down test, LD50)",CD1 and Balb/c mice,> 2000 mg/kg of body weight
same,Cruzipain inhibitor (known),cruzipain,not an inhibitor of cruzipain
same,IC50,T. cruzi amastigotes,0.1 µM
same,IC50,[2],< 20 µM
same,IC50,Leishmania infantum,< 0.2 µM
same,Ames test (mutagenicity),[3],NO
same,Micronucleus test in mice (Genotoxicity),CD-1 mice [4],NO
"CC1CS(=O)(=O)CCN1/N=C/c1ccc([N+](=O)[O-])o1 (stereo not shown) [Nfx, Nifurtimox, reference compound]",AV/IP labeling Q1-UR (double AV+/IP+ labeling),[5],59%
"O=P1(N(CCCl)CCCl)NCCCO1 (stereo not shown) [cyclophosphamide, reference compound]",Micronucleus test in mice (Genotoxicity) (mean of MnPE ±SD),CD-1 mice [6],36 ± 2 MnPE and 36 ± 2 (cyclophosphamide) MnPE
